One experiment has as its system Micrococcus luteus. The experiment can be described thus: Antibacterial activity against Micrococcus luteus incubated for 18 hrs post 30 mins pre-diffusion by disk diffusion method. It counts as functional. On the technique in general: In agar diffusion tests the substance spreads into inoculated agar from a disc or well.
Experiment [1] has as its system Bacillus subtilis. As to the kind of experiment: Antibacterial activity against Bacillus subtilis incubated for 18 hrs post 30 mins pre-diffusion by disk diffusion method. It is filed as functional.
Experiment [2] has as its system Escherichia coli. The experiment can be described thus: Antibacterial activity against Escherichia coli incubated for 18 hrs post 30 mins pre-diffusion by disk diffusion method. It is filed as functional.
In a further experiment the test system is Listeria innocua. As to the kind of experiment: Antibacterial activity against Listeria innocua incubated for 18 hrs post 30 mins pre-diffusion by disk diffusion method. It is filed as functional.
The subject of another experiment is Bacillus cereus. As to the kind of experiment: Antibacterial activity against Bacillus cereus ATCC 10876 after 24 hrs by microdilution method. It is filed as functional. To be noted: ATCC 10876, 24 h. A general note: In broth dilution the organism is exposed to a series of concentrations in liquid medium.
The test system of a further experiment is Enterococcus faecalis. As to the kind of experiment: Antibacterial activity against Enterococcus faecalis ATCC 29212 after 24 hrs by microdilution method. It counts as functional. To be noted: ATCC 29212, 24 h.
In experiment [3] the test system is Staphylococcus aureus. As to the kind of experiment: Antibacterial activity against Staphylococcus aureus ATCC 25923 after 24 hrs by microdilution method. It is filed as functional. To be noted: ATCC 25923, 24 h.
Another experiment has as its system Proteus mirabilis. The experiment can be described thus: Antibacterial activity against Proteus mirabilis ATCC 35659 after 24 hrs by microdilution method. It counts as functional. To be noted: ATCC 35659, 24 h.
The test system of experiment [4] is Escherichia coli. As to the kind of experiment: Antibacterial activity against Escherichia coli ATCC 25922 after 24 hrs by microdilution method. It counts as functional. To be noted: ATCC 25922, 24 h.
Experiment [5] deals with Pseudomonas aeruginosa. The experiment can be described thus: Antibacterial activity against Pseudomonas aeruginosa ATCC 27853 after 24 hrs by microdilution method. It is filed as functional. To be noted: ATCC 27853, 24 h.
Experiment [6] concerns Candida albicans. As to the kind of experiment: Antifungal activity against Candida albicans ATCC 50193 after 24 hrs by microdilution method. It counts as functional. To be noted: ATCC 50193, 24 h.
The subject of another experiment is Aspergillus brasiliensis. As to the kind of experiment: Antifungal activity against Aspergillus brasiliensis ATCC 16404 after 24 hrs by microdilution method. It is filed as functional. To be noted: ATCC 16404, 24 h.
In experiment [7] the test system is Staphylococcus aureus. As to the kind of experiment: Antibacterial activity against Staphylococcus aureus. It is filed as functional.
Experiment [8] deals with Candida albicans. As to the kind of experiment: Antifungal activity against Candida albicans. It is filed as functional.
The subject of a further experiment is Aspergillus niger. The experiment can be described thus: Antifungal activity against Aspergillus niger. It is filed as functional.
The test system of experiment [9] is Staphylococcus aureus. The experiment can be described thus: Antibacterial activity against methicillin-resistant Staphylococcus aureus incubated for 18 hrs post 30 mins pre-diffusion by disk diffusion method. It counts as functional.
Another experiment relates to Bacillus anthracis. The experiment can be described thus: Antibacterial activity against Bacillus anthracis incubated for 18 hrs post 30 mins pre-diffusion by disk diffusion method. It counts as functional.
For experiment [10], the system named is Pseudomonas aeruginosa. As to the kind of experiment: Antibacterial activity against Pseudomonas aeruginosa. It is filed as functional.
Experiment [11] relates to Staphylococcus aureus. As to the kind of experiment: Antibacterial activity against Staphylococcus aureus incubated for 18 hrs post 30 mins pre-diffusion by disk diffusion method. It is filed as functional.
In the next experiment the test system is Listeria monocytogenes. The experiment can be described thus: Antibacterial activity against Listeria monocytogenes ATCC 35152 after 24 hrs by broth microdilution method. It counts as functional. To be noted: ATCC 35152, 24 h.
For experiment [12], the system named is Staphylococcus aureus. As to the kind of experiment: Antibacterial activity against Staphylococcus aureus ATCC 49444 after 24 hrs by broth microdilution method. To be noted: ATCC 49444, 24 h. It counts as functional.
Experiment [13] has as its system Pseudomonas aeruginosa. As to the kind of experiment: Antibacterial activity against Pseudomonas aeruginosa ATCC 27853 after 24 hrs by broth microdilution method. It is filed as functional. To be noted: ATCC 27853, 24 h.
In another experiment the test system is Salmonella typhimurium. The experiment can be described thus: Antibacterial activity against Salmonella typhimurium ATCC 14028 after 24 hrs by broth microdilution method. It is filed as functional, Salmonella enterica subsp. enterica serovar Typhimurium. To be noted: Salmonella enterica, ATCC 14028, 24 h.
Experiment [14] has as its system Escherichia coli. The experiment can be described thus: Antibacterial activity against Escherichia coli after 24 hrs by broth microdilution method. It is filed as functional.
Experiment [15] concerns Escherichia coli. As to the kind of experiment: Antibacterial activity against Escherichia coli. It counts as functional.
The test system of a further experiment is Streptococcus pneumoniae. As to the kind of experiment: Antibacterial activity against Streptococcus pneumoniae. It counts as functional.
Experiment [16] has as its system Bacillus subtilis. The experiment can be described thus: Antibacterial activity against Bacillus subtilis. It counts as functional.
The subject of the next experiment is Clostridium tetani. The experiment can be described thus: Antibacterial activity against Clostridium tetani. It is filed as functional.

Experimental findings from ChEMBL document CHEMBL4346715, “Antibacterial activity study of 1,2,4-triazole derivatives” (Eur J Med Chem, 2019) are described below.

Molecules are shown by their SMILES. In brackets after ≈: the same amount, converted by molar mass.

A word on the MIC: it is the smallest concentration in the dilution series that meets the test's criterion for growth inhibition. For the molecule `COC(=O)c1ncn(CNCn2cnc(C(=O)OC)n2)n1`, the MIC against Micrococcus luteus, against Bacillus subtilis [1], against Escherichia coli [2] and in the experiment with Listeria innocua was 7 to 15 µg/mL (≈ 23.7 to 50.8 µM) throughout.

As to `CCCCCCCCCCCCCCn1nnc(-c2n[nH]c(=S)n2-c2ccccc2)c1-c1n[nH]c(=S)n1-c1ccccc1`, the MIC with Bacillus cereus, against Enterococcus faecalis, against Staphylococcus aureus [3], in the experiment on Proteus mirabilis, in the experiment on Escherichia coli [4] and against Pseudomonas aeruginosa [5] was 1 to 128 µg/mL (≈ 1.62 to 208 µM) each time. The MIC against Candida albicans [6] and with Aspergillus brasiliensis was 1 to 128 µg/mL (≈ 1.62 to 208 µM) each time.

As for `CCn1cc(C(=O)O)c(=O)c2cc(F)c(N3CCNCC3)cc21` [NORFLOXACIN], the MIC in the experiment on Staphylococcus aureus [7] is 14.1 µg/mL (≈ 44.2 µM); in the experiment with Candida albicans [8], 7.8 µg/mL (≈ 24.4 µM); in the experiment on Aspergillus niger, 10.2 µg/mL (≈ 31.9 µM); in the experiment on Staphylococcus aureus [9], 31 to 1000 µg/mL (≈ 97.1 to 3130 µM); against Bacillus anthracis, 31 to 1000 µg/mL (≈ 97.1 to 3130 µM); with Pseudomonas aeruginosa [10] it was 11.7 µg/mL (≈ 36.6 µM).

Regarding `FC(F)(F)c1cc(-c2nnc(Sc3cc(Cl)nc(Sc4ccccc4)n3)[nH]2)cc(C(F)(F)F)c1`, the minimal inhibitory concentration (MIC) with Escherichia coli [2] was 1.8 µg/mL (≈ 3.37 µM); with Staphylococcus aureus [11], 3.1 µg/mL (≈ 5.81 µM); against Staphylococcus aureus [9], 0.75 to 1.8 µg/mL (≈ 1.4 to 3.37 µM); with Bacillus anthracis, 0.75 to 1.8 µg/mL (≈ 1.4 to 3.37 µM).

Take `CC[C@H]1OC(=O)[C@H](C)[C@@H](O[C@H]2C[C@@](C)(OC)[C@@H](O)[C@H](C)O2)[C@H](C)[C@@H](O[C@@H]2O[C@H](C)C[C@H](N(C)C)[C@H]2O)[C@](C)(O)C[C@@H](C)C(=O)[C@H](C)[C@@H](O)[C@]1(C)O` [ERYTHROMYCIN]: the MIC in the experiment with Staphylococcus aureus [9] and with Bacillus anthracis was 31 to 1000 µg/mL (≈ 42.2 to 1360 µM) in each case.

In the case of `Cn1cnc(CN(CCCO)Cc2ncn(C)n2)n1`, the MIC in the experiment on Micrococcus luteus, in the experiment with Bacillus subtilis [1], against Escherichia coli [2] and against Listeria innocua was 7 to 15 µg/mL (≈ 26.4 to 56.5 µM) in each case.

`CCCCCCCCCCn1nnc(-c2n[nH]c(=S)n2-c2ccccc2)c1-c1n[nH]c(=S)n1-c1ccccc1`: the MIC against Bacillus cereus, with Enterococcus faecalis, in the experiment with Staphylococcus aureus [3], with Proteus mirabilis, in the experiment on Escherichia coli [4] and against Pseudomonas aeruginosa [5] was 1 to 128 µg/mL (≈ 1.79 to 229 µM) in each case. Besides, the MIC against Candida albicans [6] and with Aspergillus brasiliensis was 1 to 128 µg/mL (≈ 1.79 to 229 µM) each time.

Take `CO[C@H]1/C=C/O[C@@]2(C)Oc3c(C)c(O)c4c(O)c(c(/C=N/N5CCN(C)CC5)c(O)c4c3C2=O)NC(=O)/C(C)=C\C=C\[C@H](C)[C@H](O)[C@@H](C)[C@@H](O)[C@@H](C)[C@H](OC(C)=O)[C@@H]1C` [RIFAMPIN]: the MIC against Staphylococcus aureus [9] and in the experiment on Bacillus anthracis was 31 to 1000 µg/mL (≈ 37.7 to 1220 µM) each time.

For `Cc1nc(-c2ccccc2)sc1-c1nnc(S)n1/N=C/c1ccc(Cl)cc1Cl`, the minimal inhibitory concentration (MIC) with Listeria monocytogenes, against Staphylococcus aureus [12], in the experiment with Pseudomonas aeruginosa [13], against Salmonella typhimurium and in the experiment with Escherichia coli [14] was 1.95 to 62.5 µg/mL (≈ 4.37 to 140 µM) throughout.

`CCCCCCCCCCn1nnc(-c2n[nH]c(=S)n2N)c1-c1n[nH]c(=S)n1N`: the MIC in the experiment with Bacillus cereus, in the experiment with Enterococcus faecalis, in the experiment with Staphylococcus aureus [3], with Proteus mirabilis, in the experiment on Escherichia coli [4] and against Pseudomonas aeruginosa [5] was 1 to 128 µg/mL (≈ 2.29 to 293 µM) throughout. Moreover, the MIC in the experiment with Candida albicans [6] and with Aspergillus brasiliensis was 1 to 128 µg/mL (≈ 2.29 to 293 µM) in each case.

In the case of `Cc1nc(-c2ccccc2)sc1-c1nnc(S)n1/N=C/c1cccc([N+](=O)[O-])c1`, the MIC in the experiment on Listeria monocytogenes, in the experiment with Staphylococcus aureus [12], against Pseudomonas aeruginosa [13], with Salmonella typhimurium and against Escherichia coli [14] was 1.95 to 62.5 µg/mL (≈ 4.62 to 148 µM) each time.

`CC1(C)S[C@@H]2[C@H](NC(=O)[C@H](N)c3ccccc3)C(=O)N2[C@H]1C(=O)O` [AMPICILLIN]: the MIC against Escherichia coli [15] is 100 to 250 µg/mL (≈ 286 to 715 µM); against Staphylococcus aureus [7], 10.9 µg/mL (≈ 31.2 µM); with Streptococcus pneumoniae, 100 to 250 µg/mL (≈ 286 to 715 µM); against Bacillus subtilis [16], 100 to 250 µg/mL (≈ 286 to 715 µM); against Clostridium tetani it was 100 to 250 µg/mL (≈ 286 to 715 µM); with Staphylococcus aureus [9] it was 31 to 1000 µg/mL (≈ 88.7 to 2860 µM). Moreover, the MIC in the experiment on Bacillus anthracis was 31 to 1000 µg/mL (≈ 88.7 to 2860 µM); with Pseudomonas aeruginosa [10] it was 10.2 µg/mL (≈ 29.2 µM).

Take `Cc1nc(-c2ccccc2)sc1-c1nnc(S)n1/N=C/c1c(Cl)cccc1Cl`: the MIC with Listeria monocytogenes, in the experiment on Staphylococcus aureus [12], with Pseudomonas aeruginosa [13], against Salmonella typhimurium and against Escherichia coli [14] was 1.95 to 62.5 µg/mL (≈ 4.37 to 140 µM) each time.
